The target in one data set is T1, human CRF2α receptor (Homo sapiens, UniProt Q13324).
T1 construct: expressed in transfected cells; host or cells: TeloHEAC
T1 sequence (Q13324 1-411): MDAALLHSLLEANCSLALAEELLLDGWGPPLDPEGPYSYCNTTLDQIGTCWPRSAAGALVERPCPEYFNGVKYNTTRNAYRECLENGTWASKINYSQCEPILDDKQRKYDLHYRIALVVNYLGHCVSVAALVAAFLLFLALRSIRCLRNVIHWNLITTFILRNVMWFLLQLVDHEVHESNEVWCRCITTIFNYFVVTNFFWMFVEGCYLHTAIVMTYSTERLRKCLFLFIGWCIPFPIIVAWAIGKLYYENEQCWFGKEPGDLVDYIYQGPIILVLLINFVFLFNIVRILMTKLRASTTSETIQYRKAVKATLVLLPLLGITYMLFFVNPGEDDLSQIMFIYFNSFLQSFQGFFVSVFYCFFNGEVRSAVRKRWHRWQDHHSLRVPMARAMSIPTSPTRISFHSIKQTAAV
The data set can be described thus: cAMP agonism at human CRF2 α receptor in TeloHEAC cells (Example 7). The settings on record: cAMP HTRF, TeloHEAC cells stably expressing human CRF2 α. In kind it is cell-based. The method in brief:
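HTRF ratio 665/620 nm, read 1 h after lysis reagents, reports cAMP. Cells: thawed stocks, 2000/well, 30 min RT with compound in HBSS, 20 mM HEPES, 0 or 0.1% HSA, 2 mM IBMX. Activity normalised to UCN2 1000 nM = 100%; EC50 from half-maximal activation.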

For another data set, the system named is rat CRF2R α receptor. The data set can be described thus: cAMP agonism at rat CRF2R α receptor in A7R5 rat aortic smooth muscle cells (Example 8). In kind it is cell-based. The settings on record: cAMP HTRF, A7R5 rat aortic smooth muscle cell line, 0% HSA. In outline:
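Potency (EC50) is the concentration reaching half-maximal activation, with responses scaled so that 1000 nM urocortin 2 equals 100%. Intracellular cAMP was quantified by homogeneous time-resolved fluorescence at 665/620 nm, 1 h after lysis-buffer reagents. Compound stimulation lasted 30 min at room temperature on 2000 IBMX-treated (2 mM) cells per well in HEPES-buffered HBSS.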

Data set [1] in a line: Solubility in buffer systems by UPLC-UV (Example 13). In kind it is physicochemical. The settings on record: pH 4.5, Solubility in Buffer B [mg/ml]. In outline: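 Quantitation used UV peak area from UPLC of the 1:10-diluted supernatant, set against a reference-compound standard curve with extinction coefficients adjusted for amino acid sequence.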
Data set [2] in a line: Physical stability, Thioflavin T fibrillation assay (Example 14). The settings on record: Buffer B: 100 mM acetate buffer, pH 4.5, 2.7 mg/ml m-cresol; 3 mg/ml; 37° C. shaking. Type of data set: physicochemical. The method in brief:
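Fibrillation tendency was judged from lag time and rise in Thioflavin T fluorescence, measured every 20 minutes over eight replicates per sample. Peptides at 3 mg/ml final were held at 37° C under cycles of 10 s shaking (960 rpm) and 50 s rest.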

The nature of data set [3]: Physical stability, dynamic light scattering assay (Example 15). In kind it is physicochemical. The settings on record: Buffer B (100 mM acetate, pH 4.5, 2.7 mg/ml m-cresol). The method, then: The physical stability of the compounds was also assessed using a dynamic light scattering assay.
In the present study, the physical stability of test compounds was assessed by determining the apparent hydrodynamic radius (Rh), the scattering intensity (I) and mass contribution (M) after synthesis (0 weeks) and after storage for 4 weeks at 40° C.
For each solution of test compound, the hydrodynamic radius Rh and the diffusion constant D (related via the Stokes-Einstein equation) were determined as an average over triplicates. Both parameters were determined at different compound concentrations (e.g., Rh1 and D1: 1 mg/ml and Rh5 and D5: 5 mg/ml, Rh10 and D10: 10 mg/mL) in the same buffer system. The difference of these parameters between low and high peptide concentration is a surrogate for the DLS interaction parameter kD. […] In addition, the hydrodynamic radius Rh and the corresponding Scattering Intensity (%) were determined as an average over duplicates. The target concentration was 300 μM. Therefore, solutions from solid samples were prepared in a buffer system with a concentration of 300 μM compound based on the previously determined % purity.
DLS measurements were performed on a DynaPro Plate Reader I (Wyatt Technology, Santa Barbara, CA, US) with an 837 nm laser light source at a scattering angle of 150°. The data were collected and processed with Dynamics V 7.8.1.3 or 7.8.2.18 software provided by Wyatt Technology.
Hydrodynamic radii were determined with non-negatively constrained least squares (NNLS) methods using DYNALS algorithms with regularization fit. […] Samples were tempered over 1 hour at +25° C. and visually inspected before analysis.
Samples were mixed with the aid of a pipet tip. Measurements were performed in 5 replicates. […] The plate was centrifuged for 2 minutes at 600 rcf. After removing the sealing, the samples were measured at +25° C.

Data set [4] has as its target human corticotropin-releasing factor 2α (CRF2α receptor) (human), Q13324. The data set can be described thus: cell-based or functional assay.

Read-outs that look alike come from different tables or passages of the source. Starred links: 1 amine or outer side, 2 acyl side, 3 side chain; linkers in the order of their positions; H or OH if unused. Non-standard residues stand in square brackets, D forms with d. Residues, ends and D or L forms follow the SMILES beside them. Groups on a side chain read outwards from the residue. No end group written: not given here. *: point of attachment. C18 diacid = O=C(O)CCCCCCCCCCCCCCCCC(=O)*; γGlu = O=C(O)[C@H](CCC(=O)[*:2])N[*:1]; Palmitoyl = CCCCCCCCCCCCCCCC(=O)*; AEEA = NCCOCCOCC(=O)O; Aib = CC(C)(N)C(=O)O

For the molecule `CC[C@H](C)[C@H](N)C(=O)N[C@H](C(=O)N[C@@H](CC(C)C)C(=O)N[C@@H](CO)C(=O)N[C@@H](CC(C)C)C(=O)N[C@@H](CC(=O)O)C(=O)N[C@@H](C(=O)N1CCC[C@H]1C(=O)N[C@H](C(=O)N[C@@H](CCCCN)C(=O)N[C@@H](CC(C)C)C(=O)N[C@@H](CCCCNC(=O)COCCOCCNC(=O)COCCOCCNC(=O)CC[C@H](NC(=O)CCCCCCCCCCCCCCCCC(=O)O)C(=O)O)C(=O)N[C@@H](CCC(N)=O)C(=O)N[C@H](C(=O)N[C@@H](CC(C)C)C(=O)N[C@@H](CC(C)C)C(=O)N[C@@H](CCC(=O)O)C(=O)N[C@@H](CCC(N)=O)C(=O)N[C@@H](C)C(=O)N[C@@H](CCCNC(=N)N)C(=O)N[C@@H](CCC(N)=O)C(=O)N[C@@H](CCCCN)C(=O)NC(C)(C)C(=O)N[C@@H](CCC(N)=O)C(=O)N[C@@H](CCCNC(=N)N)C(=O)N[C@@H](CCC(=O)O)C(=O)N[C@@H](CCC(N)=O)C(=O)N[C@@H](C)C(=O)N[C@@H](CCC(=O)O)C(=O)N[C@@H](CCCCN)C(=O)N[C@@H](CC(N)=O)C(=O)N[C@@H](CCCCN)C(=O)N[C@@H](CCCNC(=N)N)C(=O)N[C@H](C(=O)N[C@@H](CC(C)C)C(=O)N[C@@H](CCC(=O)O)C(=O)N[C@@H](CCCNC(=N)N)C(=O)N[C@H](C(N)=O)C(C)C)[C@@H](C)CC)[C@@H](C)CC)[C@@H](C)CC)C(C)C)C(C)C` [compound 142] (H-IVLSLD[dV]PIKLK([AEEA-AEEA-γGlu-C18 diacid])QILLEQARQK[Aib]QREQAEKNKRILERV-NH2; N-terminus assumed), the EC50 on human CRF2α receptor (0% HSA, read-out: EC50 [nM], 0% HSA) was determined as 0.05 nM. The 50% effective concentration (EC50) at human CRF2α receptor (0.1% HSA, read-out: EC50 [nM], 0.1% HSA) was 1.42 nM. This molecule also yielded an EC50 with rat CRF2R α receptor of 0.2 nM. Also, the solubility at 1 h in data set [1] is over 8700 µg/mL. Moreover, in data set [2], the “Increase in FI (fluorescence intensity)” value is given as “No” and the “Lag time” value is on record as over 45 h. Further, in data set [3] (0 weeks), the “Apparent Rh [nm] 0 weeks” value is recorded as 3.63 ± 0.14 nm and the “Scattering Intensity (I) [%] 0 weeks” value amounted to 100 ± 0%. Moreover, in data set [3] (4 weeks at 40° C.), the “Apparent Rh [nm] 4 weeks” value turned out to be 3.59 ± 0.04 nm and the “Scattering Intensity (I) [%] 4 weeks” value is given as 100 ± 0%.

B1: peptide of SEQ ID NO: 210 (peptide)
peptide: IVLSLD[dV]PIKLK([AEEA-AEEA-γGlu-Palmitoyl])QILLKQERQKK[Aib]RQKAEKNKQILAQV-NH2
modifications: N-terminus assumed
SMILES: CCCCCCCCCCCCCCCC(=O)N[C@@H](CCC(=O)NCCOCCOCC(=O)NCCOCCOCC(=O)NCCCC[C@H](NC(=O)[C@H](CC(C)C)NC(=O)[C@H](CCCCN)NC(=O)[C@@H](NC(=O)[C@@H]1CCCN1C(=O)[C@H](NC(=O)[C@H](CC(=O)O)NC(=O)[C@H](CC(C)C)NC(=O)[C@H](CO)NC(=O)[C@H](CC(C)C)NC(=O)[C@@H](NC(=O)[C@@H](N)[C@@H](C)CC)C(C)C)C(C)C)[C@@H](C)CC)C(=O)N[C@@H](CCC(N)=O)C(=O)N[C@H](C(=O)N[C@@H](CC(C)C)C(=O)N[C@@H](CC(C)C)C(=O)N[C@@H](CCCCN)C(=O)N[C@@H](CCC(N)=O)C(=O)N[C@@H](CCC(=O)O)C(=O)N[C@@H](CCCNC(=N)N)C(=O)N[C@@H](CCC(N)=O)C(=O)N[C@@H](CCCCN)C(=O)N[C@@H](CCCCN)C(=O)NC(C)(C)C(=O)N[C@@H](CCCNC(=N)N)C(=O)N[C@@H](CCC(N)=O)C(=O)N[C@@H](CCCCN)C(=O)N[C@@H](C)C(=O)N[C@@H](CCC(=O)O)C(=O)N[C@@H](CCCCN)C(=O)N[C@@H](CC(N)=O)C(=O)N[C@@H](CCCCN)C(=O)N[C@@H](CCC(N)=O)C(=O)N[C@H](C(=O)N[C@@H](CC(C)C)C(=O)N[C@@H](C)C(=O)N[C@@H](CCC(N)=O)C(=O)N[C@H](C(N)=O)C(C)C)[C@@H](C)CC)[C@@H](C)CC)C(=O)O
B1 showed an EC50 [nM], 0% HSA (cAMP, HTRF) in data set [4] of 2.98 nM.

B2: peptide of SEQ ID NO: 206 (peptide)
peptide: IVLSLD[dV]PIKLK([AEEA-AEEA-γGlu-γGlu-Palmitoyl])QILLKQERQK[Aib]QREQAEKNKQILAQV-NH2
modifications: N-terminus assumed
SMILES: CCCCCCCCCCCCCCCC(=O)N[C@@H](CCC(=O)N[C@@H](CCC(=O)NCCOCCOCC(=O)NCCOCCOCC(=O)NCCCC[C@H](NC(=O)[C@H](CC(C)C)NC(=O)[C@H](CCCCN)NC(=O)[C@@H](NC(=O)[C@@H]1CCCN1C(=O)[C@H](NC(=O)[C@H](CC(=O)O)NC(=O)[C@H](CC(C)C)NC(=O)[C@H](CO)NC(=O)[C@H](CC(C)C)NC(=O)[C@@H](NC(=O)[C@@H](N)[C@@H](C)CC)C(C)C)C(C)C)[C@@H](C)CC)C(=O)N[C@@H](CCC(N)=O)C(=O)N[C@H](C(=O)N[C@@H](CC(C)C)C(=O)N[C@@H](CC(C)C)C(=O)N[C@@H](CCCCN)C(=O)N[C@@H](CCC(N)=O)C(=O)N[C@@H](CCC(=O)O)C(=O)N[C@@H](CCCNC(=N)N)C(=O)N[C@@H](CCC(N)=O)C(=O)N[C@@H](CCCCN)C(=O)NC(C)(C)C(=O)N[C@@H](CCC(N)=O)C(=O)N[C@@H](CCCNC(=N)N)C(=O)N[C@@H](CCC(=O)O)C(=O)N[C@@H](CCC(N)=O)C(=O)N[C@@H](C)C(=O)N[C@@H](CCC(=O)O)C(=O)N[C@@H](CCCCN)C(=O)N[C@@H](CC(N)=O)C(=O)N[C@@H](CCCCN)C(=O)N[C@@H](CCC(N)=O)C(=O)N[C@H](C(=O)N[C@@H](CC(C)C)C(=O)N[C@@H](C)C(=O)N[C@@H](CCC(N)=O)C(=O)N[C@H](C(N)=O)C(C)C)[C@@H](C)CC)[C@@H](C)CC)C(=O)O)C(=O)O
Take B2: in data set [4], the EC50 [nM], 0% HSA (cAMP, HTRF) was 0.09 nM.

B3: peptide of SEQ ID NO: 205 (peptide)
peptide: IVLSLD[dV]PIKLK([AEEA-AEEA-γGlu-Palmitoyl])QILLKQERQK[Aib]QREQAEKNKQILAQV-NH2
modifications: N-terminus assumed
SMILES: CCCCCCCCCCCCCCCC(=O)N[C@@H](CCC(=O)NCCOCCOCC(=O)NCCOCCOCC(=O)NCCCC[C@H](NC(=O)[C@H](CC(C)C)NC(=O)[C@H](CCCCN)NC(=O)[C@@H](NC(=O)[C@@H]1CCCN1C(=O)[C@H](NC(=O)[C@H](CC(=O)O)NC(=O)[C@H](CC(C)C)NC(=O)[C@H](CO)NC(=O)[C@H](CC(C)C)NC(=O)[C@@H](NC(=O)[C@@H](N)[C@@H](C)CC)C(C)C)C(C)C)[C@@H](C)CC)C(=O)N[C@@H](CCC(N)=O)C(=O)N[C@H](C(=O)N[C@@H](CC(C)C)C(=O)N[C@@H](CC(C)C)C(=O)N[C@@H](CCCCN)C(=O)N[C@@H](CCC(N)=O)C(=O)N[C@@H](CCC(=O)O)C(=O)N[C@@H](CCCNC(=N)N)C(=O)N[C@@H](CCC(N)=O)C(=O)N[C@@H](CCCCN)C(=O)NC(C)(C)C(=O)N[C@@H](CCC(N)=O)C(=O)N[C@@H](CCCNC(=N)N)C(=O)N[C@@H](CCC(=O)O)C(=O)N[C@@H](CCC(N)=O)C(=O)N[C@@H](C)C(=O)N[C@@H](CCC(=O)O)C(=O)N[C@@H](CCCCN)C(=O)N[C@@H](CC(N)=O)C(=O)N[C@@H](CCCCN)C(=O)N[C@@H](CCC(N)=O)C(=O)N[C@H](C(=O)N[C@@H](CC(C)C)C(=O)N[C@@H](C)C(=O)N[C@@H](CCC(N)=O)C(=O)N[C@H](C(N)=O)C(C)C)[C@@H](C)CC)[C@@H](C)CC)C(=O)O
On to B3, for which the EC50 [nM], 0% HSA (cAMP, HTRF) in data set [4] turned out to be 0.32 nM.

The record behind these values is patent publication US12679878B2, “CRF2 receptor agonists and their use in therapy” (SANOFI, priority 2020, dated 2026).
